Reference: US6376198B1, “Assay for non-peptide agonists to peptide hormone receptors” (New England Medical Center Hospitals, Inc., priority 1995, dated 2002)
Positions count from the first letter of the chain named. “Also recorded” adds a separate entry of the source.

Experiments:
[1] = molecular target: T1, human CCK-B/gastrin receptor (wild-type) (Homo sapiens, UniProt P32239); test: Total inositol phosphate production, COS-7 cells expressing wild-type receptor; type: cell-based; details: for IC50: 95% C.I. in brackets, read-out: Wild-type receptor IC50(nM) 95% C.I., signaling potency
T1 construct: expressed in transfected cells; host or cells: COS-7
T1 sequence (P32239 1-447): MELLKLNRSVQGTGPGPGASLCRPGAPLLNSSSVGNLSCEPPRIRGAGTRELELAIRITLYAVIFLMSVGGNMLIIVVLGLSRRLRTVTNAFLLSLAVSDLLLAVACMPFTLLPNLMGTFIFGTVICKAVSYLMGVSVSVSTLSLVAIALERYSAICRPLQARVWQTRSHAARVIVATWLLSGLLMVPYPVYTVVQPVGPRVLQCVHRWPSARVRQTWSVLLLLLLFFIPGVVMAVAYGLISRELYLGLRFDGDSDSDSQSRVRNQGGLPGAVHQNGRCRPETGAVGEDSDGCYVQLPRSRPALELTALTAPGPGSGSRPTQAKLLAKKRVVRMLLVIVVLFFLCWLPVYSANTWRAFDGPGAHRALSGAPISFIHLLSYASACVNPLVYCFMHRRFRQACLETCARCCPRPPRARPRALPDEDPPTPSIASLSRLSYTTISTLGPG

[2] = molecular target: T2, human CCK-B/gastrin receptor 325L→E mutant (Homo sapiens, UniProt P32239, L325E); test: Total inositol phosphate production, COS-7 cells expressing constitutively active mutant; type: cell-based; details: for IC50: 325L→E mutant, 95% C.I. in brackets, read-out: 325L→E Mutant IC50(nM) 95% C.I., signaling potency; for intrinsic activity / functional classification: constitutively active 325L→E mutant
T2 construct: expressed in transfected cells; host or cells: COS-7
T2 sequence (P32239 1-447 L325E): T1 sequence (P32239 1-447) with L325E

[3] = molecular target: T1, human CCK-B/gastrin receptor (wild-type); test: 125I-CCK-8 competition binding, COS-7 cells expressing wild-type receptor; details: for Ratio (Wild-type/Mutant) of Ki: binding affinities; for Ki: wild-type receptor, read-out: Wild-type receptor Ki(nM), 125I CCK-8 binding affinity
Procedure: (§1) The binding of a ligand to a CCK receptor, e.g., the CCK-A or the CCK-B/gastrin receptor, can be measured according to the following example. In this example, the binding affinity of a ligand to the human CCK-B/gastrin receptor is measured.
(§2) Twenty-four hours after transfection cells were split into 24-well dishes (2×10^4 cells/well) (Costar). After an additional 24 hours, competition binding experiments were performed in Hank's buffer supplemented with 25 mM phenylmethylsulfonyl fluoride (PMSF). […] Equilibrium binding occurred after incubation for 80 min. at 37° C. Cell monolayers were then washed three times, hydrolyzed in 1 N NaOH, and the amount of radioactivity to the receptor was quantified.
(§3) The competition data were analyzed using computer software which is specifically designed for the purpose of radioligand binding assays (Inplot 4.0, GraphPad, San Diego, Calif.).

[4] = molecular target: T2, human CCK-B/gastrin receptor 325L→E mutant; test: 125I-CCK-8 competition binding, COS-7 cells expressing constitutively active mutant; details: read-out: 325L→E Mutant Ki(nM), 125I CCK-8 binding affinity
Procedure: as §1
as §2, with “quantified. […] All binding experiments were repeated three to five times.” for “quantified.”
as §3

[5] = molecular target: T3, mutant human CCK-A receptor pMHA35 (Homo sapiens, UniProt P32238, E138Q); test: Intrinsic activity at mutant CCK-A receptor pMHA35 (138-ERY-140 to QRY); type: cell-based; details: basal signaling not increased
T3 construct: expressed in transfected cells; host or cells: COS-7 (inferred from the general inositol phosphate method)
T3 sequence (P32238 1-428 E138Q): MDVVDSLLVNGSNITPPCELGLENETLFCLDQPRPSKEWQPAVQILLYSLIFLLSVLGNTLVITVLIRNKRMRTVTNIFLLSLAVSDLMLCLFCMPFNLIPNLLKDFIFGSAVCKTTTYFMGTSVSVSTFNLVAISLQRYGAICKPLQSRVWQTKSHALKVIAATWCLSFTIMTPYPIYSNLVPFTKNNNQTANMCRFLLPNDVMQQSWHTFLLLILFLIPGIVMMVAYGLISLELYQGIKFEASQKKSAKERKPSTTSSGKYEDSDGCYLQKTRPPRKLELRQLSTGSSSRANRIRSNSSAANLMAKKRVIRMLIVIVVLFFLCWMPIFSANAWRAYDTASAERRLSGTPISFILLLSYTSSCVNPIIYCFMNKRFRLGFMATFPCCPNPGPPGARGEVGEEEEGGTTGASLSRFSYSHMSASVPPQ
Text: An example is given of a mutant human CCK-A receptor that enhances the intrinsic activity of the partial ‘peptoid’ agonist PD 135,158, yet causes no apparent increase in agonist-independent basal receptor activity, is the mutant CCK-A receptor pMHA35. pMHA35 was made by replacing amino acids 138-ERY-140 of the human wild-type CCK-A receptor with QRY in the vector pcDNAI. (See FIG. 2 for an illustration of the wild-type CCK-A receptor amino acid sequence.)
This method, based on alignment, was employed to construct a CCK-A mutant receptor. A multiple alignment map was made which included the human and rat CCK-A sequences, the mastomys, rat, human, and canine CCK-B/gastrin receptor, and a Xenopus CCK-A/CCK-B intermediate receptor (CCK-XL; FIG. 2). Based on this map, conserved amino acids 138-ERY-140 of the CCK-A receptor were replaced with amino acids QRY, based on a known constitutively active rhodopsin mutant with enhanced transducin activation (Arnis et al., J. Biol. Chem., 269:23879-81, 1994). The altered amino acid residues are positioned in transmembrane domain III and flank the second intracellular loop.

Xenopus CCK receptor = Xenopus CCK receptor (Xenopus laevis, UniProt P70031); details: single experiment
Xenopus CCK receptor, sequence (P70031 whole entry): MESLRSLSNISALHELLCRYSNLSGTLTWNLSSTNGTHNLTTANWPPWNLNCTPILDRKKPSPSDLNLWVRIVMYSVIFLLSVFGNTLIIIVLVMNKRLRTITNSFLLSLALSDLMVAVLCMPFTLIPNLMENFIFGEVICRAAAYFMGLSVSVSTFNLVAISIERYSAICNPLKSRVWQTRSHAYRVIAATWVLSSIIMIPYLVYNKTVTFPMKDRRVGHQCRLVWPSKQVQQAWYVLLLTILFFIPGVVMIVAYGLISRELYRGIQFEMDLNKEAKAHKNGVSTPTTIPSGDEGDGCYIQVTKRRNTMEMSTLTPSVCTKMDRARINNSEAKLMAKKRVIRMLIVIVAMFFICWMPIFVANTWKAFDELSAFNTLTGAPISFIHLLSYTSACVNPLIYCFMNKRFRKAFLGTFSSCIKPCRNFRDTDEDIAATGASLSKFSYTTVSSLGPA
Procedure: COS-7 cells transfected with receptor cDNA-pcDNAI were cultured in inositol-free, serum-free Dulbecco's modified Eagle's medium (DMEM, GIBCO), supplemented with 3 μCi/ml ^3 H-myo-inositol (NEN, 45-80 Ci/mmol), for 18 hours prior to analysis. The cells were then washed twice with DMEM/10 mM LiCl2 and twice with phosphate-buffered saline/10 mM LiCl2. After stimulation with putative agonists in phosphate-buffered saline 10/mM LiCl2 for 30 minutes at 37° C., cells were scraped in ice-cold methanol. […] The upper phase was analyzed for inositol phosphates by strong anion exchange chromatography, using Dowex 1-X8 columns (BIORAD) and differential elution with water/60 mM ammonium fornate/2 M ammonium fornate. Eluted radioactivity was measured by liquid scintillation counting, and inositol phosphate content was expressed as a percentage of total ^3H-radioactivity applied to the columns.
In FIG. 11, basal levels of inositol phosphate production were measured for human CCK-A hCCK-A), human CCK-B (hCCK-B), dog CCK-B (dCCK-B), mouse CCK-B (mCCK-B), and the mastomys CCK receptor (FIG. 11, part A), and expressed relative to the basal level of hCCK-B.
Single experiments were also performed for the rat CCK-B/gastrin receptor and for the related Xenopus CCK receptor (Table 2).

[6] = molecular target: human wild-type CCK-B receptor (Homo sapiens, UniProt P32239); details: 10^-7 M
Procedure: Measurement of [Ca^2+]: Forty-eight hours after transfection with hCCKB-pcDNAI, COS-7 cells were loaded with the Ca^2+ fluorophore fura-2 in modified Krebs-Ringer bicarbonate buffer. […] Extracellular calcium can be chelated with EGTA (2.5 mM) to confirm that a gastrin-induced increase in [Ca^2+] originates primarily from intracellular [Ca^2+] pools.

rat CCK-A = details: single experiment

Row | Compound | intrinsic activity / functional classification ([1]; wild-type receptor) | Ratio (Wild-type/Mutant) of Ki [3] | Ki [3] | Ki [4] | intrinsic activity / functional classification [2] | also measured
1 | Cc1cccc(NC(=O)N[C@@H]2N=C(c3ccccc3)c3ccccc3N(C)C2=O)c1 [L-365,260] | barely detectable, yet significant, increase in inositol phosphate production |  |  |  |  | efficacy compared to the full agonist CCK-8s (inositol phosphate) ([2]; 325L→E constitutively active mutant): 62%
2 | CC1(C)[C@H]2CC[C@@]1(C)[C@H](OC(=O)N[C@](C)(Cc1c[nH]c3ccccc13)C(=O)NC[C@H](NC(=O)CCC(=O)O)c1ccccc1)C2 [PD 135,158] | partial agonists | 2.23 | 2.25 ± 0.61 nM | 1.01 ± 0.19 nM | almost full agonists | Ratio (Wild-type/Mutant) of signaling potencies [1]: 1.04; IC50 ([1]; wild-type receptor): 1.05 nM; IC50 [2]: 1.01 nM; intrinsic activity at mutant versus wild-type CCK-A receptor [5]: significantly increased
3 | C[C@](Cc1c[nH]c2ccccc12)(NC(=O)OC1C2CC3CC(C2)CC1C3)C(=O)NC[C@H](NC(=O)/C=C/C(=O)O)c1ccccc1 (stereo partly drawn) [PD 136,450] | partial agonists | 1.68 | 0.99 ± 0.1 nM | 0.59 ± 0.12 nM | almost full agonists | Ratio (Wild-type/Mutant) of signaling potencies [1]: 0.62; IC50 ([1]; wild-type receptor): 0.36 nM; IC50 [2]: 0.58 nM
4 | Cc1cccc(NC(=O)N[C@@H]2N=C(c3ccccc3)c3ccccc3N(CC(=O)c3ccccc3C)C2=O)c1 [YM022] | almost no intrinsic activity | 0.88 | 0.07 ± 0.01 nM | 0.08 ± 0.01 nM | almost no intrinsic activity; also recorded: weak inverse agonist | pA2, block of CCK-8s induced inositol phosphate production ([1]; wild-type receptor, agonist CCK-8s): 9.78; pA2, block of CCK-8s induced inositol phosphate production ([2]; constitutively active receptor, agonist CCK-8s): 9.37; pA2, block of L-740,093 S induced inositol phosphate production ([2]; constitutively active receptor, agonist L-740,093 S (FIG. 4)): 9.54
5 | CCK-8s |  |  |  |  |  | CCK-8s stimulated (% human basal) inositol phosphate (Xenopus CCK receptor): 442 % human basal; change in free cytosolic calcium [Ca2+]i [6]: marked increase in free cytosolic calcium; CCK-8s stimulated (% human basal) inositol phosphate (rat CCK-A): 684 % human basal
6 | azabicyclo[3.2.2]nonane benzodiazepine [L-740,093 R] |  | 1.06 | 0.19 ± 0.02 nM | 0.18 ± 0.04 nM | reduces the basal activity of the constitutively active receptor almost to wild-type levels | 
7 | azabicyclo[3.2.2]nonane benzodiazepine [L-740,093 S] |  | 1.22 | 19.5 ± 1.5 nM | 16 ± 1.4 nM | almost a full agonist | efficacy compared with CCK-8s (inositol phosphate) ([1]; human wild-type receptor): 25%
